Assay results: patent US20160296538A1, “[…] RESPONSE BIOMARKER FOR TH-302 ANTI-CANCER THERAPY” (THRESHOLD PHARMACEUTICALS, INC., priority 2013, published 2016)
“Also recorded” adds a separate entry of the source.

How the values were obtained:
[1] = tested on: H460 non-small cell lung cancer xenograft; assay: H460 ectopic xenograft tumor growth and body weight, 150 mg/kg i.p.; assay type: in vivo, nu/nu mice
Excerpt: (§1) Proliferating cells (as measured by Ki-67 immunostaining) were decreased as well; DNA damage (as measured by γH2AX immunostaining) and necrosis (as measured by hematoxylin and eosin, H&E, staining) were increased. There was regional co-localization of pimonidazole and CA-IX, but not co-localization of pimonidazole and two other putative endogenous hypoxia markers: Glut-1 or HIF-1α.
The human H460 non-small cell lung cancer human tumor ectopic xenograft model was employed for this study. The H460 non-small cell lung cancer xenograft model was established by s.c. implantation of 1×10^6 cells in the flank of nu/nu mice. When the tumor size was 100 mm^3, a single dose of TH-302 (150 mg/kg, i.p.) or vehicle was administered.

[2] = tested on: carbonic anhydrase IX (CA-IX); assay: ELISA quantification of circulating plasma CA-IX in H460 xenograft animals; assay type: in vivo, nu/nu mice; details: for circulating plasma CA-IX level change: 72 hours, TH-302 150 mg/kg i.p., doxorubicin 4 mg/kg iv
Method: (§2) Three biomarker platforms were employed in this study: positron emission tomography (PET) imaging employing the tracer [18F]-HX4; immunohistochemistry of isolated tumor tissue employing antibodies directed against the exogenous hypoxia biomarker pimonidazole and the endogenous hypoxia biomarker carbonic anhydrase IX (CA-IX); and ELISA-based quantification of circulating plasma CA-IX.
(§3) [18F]-HX4 uptake was assessed by PET/CT imaging, and the tumor to muscle ratio (T/M) was determined. […] Blood was collected from the pre- and post-treated animals via retro-orbital venipuncture. […] For tissue biomarker analysis, tumors were harvested 72 hours after TH-302 treatment, and tumor hypoxia was assessed by semi-quantitative morphometric analysis of the PIMO immunostaining at that time.

[3] = tested on: 786-O human renal cell carcinoma (RCC) cell line; assay: 786-O RCC xenograft tumor growth, repeated dosing; assay type: in vivo; details: 786-O model; 50 mg/kg QDx5 for 2 wk, i.p.; P vs vehicle >0.05
Excerpt: (§4) H460 is a high hypoxic fraction tumor model, while the 786-O RCC model is well-vascularized with very low hypoxia. […] When compiling the data from both H460 and 786-O tumors, there was significant correlation between [18F]-HX4 uptake and pimonidazole-positive hypoxic fraction (HF %, R2=0.55, p=0.006).
(§5) The utility of [18F]-HX4 to serve as a predictive biomarker for TH-302 anti-cancer efficacy was shown by the significant correlation observed between the TH-302 anti-cancer efficacy in a model and its hypoxic fraction as measured by [18F]-HX4. […] TGD500 was determined as the increased time (days) for the treated tumor's size on average to reach 500 mm^3 as compared with the vehicle group. TGI was defined as (1−ΔT/ΔC)×100, where ΔT/ΔC is the ratio of the change in mean tumor volume of the treated group (ΔT) and of the control group (ΔC).

H460 xenograft tumors = assay: Tissue biomarkers in H460 tumors (Ki67, γH2AX, H&E); assay type: in vivo, nu/nu mice; details: 72 hours after 150 mg/kg i.p.
Method: as §1
as §3, with “venipuncture. Plasma CA-IX changed from baseline 165±13 to 104±9.3 pg/ml 72 hours after TH-302 dosing, a 37% reduction (p<0.05; n=10 per group).” for “venipuncture.”, “time. The hypoxic fraction (HF) was 13±1.7% in the vehicle group (n=5) and 5.8±0.5% in the TH-302 treatment group (n=6, p<0.05).” for “time.”

[4] = tested on: H460 xenograft tumor hypoxia ([18F]-HX4 uptake); assay: [18F]-HX4 PET/CT imaging of H460 xenograft tumors; assay type: in vivo, nu/nu mice
Excerpt: as §1, §2
as §3, with “venipuncture. Plasma CA-IX changed from baseline 165±13 to 104±9.3 pg/ml 72 hours after TH-302 dosing, a 37% reduction (p<0.05; n=10 per group).” for “venipuncture.”, “time. […]” for “time.”

[5] = tested on: H460 xenograft tumor hypoxia (pimonidazole); assay: Pimonidazole immunostaining of H460 tumors (hypoxic fraction); assay type: in vivo, nu/nu mice
Excerpt: as §1, §2
as §3, with “venipuncture. Plasma CA-IX changed from baseline 165±13 to 104±9.3 pg/ml 72 hours after TH-302 dosing, a 37% reduction (p<0.05; n=10 per group).” for “venipuncture.”, “time. […]” for “time.”

[6] = tested on: H460 human non-small cell lung cancer (NSCLC) cell line; assay: H460 NSCLC xenograft tumor growth, repeated dosing; assay type: in vivo; details: H460 model; 50 mg/kg QDx5 for 2 wk, i.p.; P vs vehicle <0.001
Excerpt: as §4, §5

[7] = 72 hrs after one dose at 150 mg/kg i.p.

SMILES | tumor growth in relation to initial [18F]-HX4 uptake ([1]; 150 mg/kg i.p., Q4-5Dx3) | tumor volume change [1, 7] | TGD1000 (tumor growth delay to tumor size of 1000 mm^3) ([1]; single dose 150 mg/kg i.p.) | maximum body weight loss ([1]; single dose 150 mg/kg i.p.) | TGI (tumor growth inhibition) ([1]; single dose 150 mg/kg i.p. at tumor size 100 mm^3) | Plasma CA-IX ([2]; 72 hours after dosing 150 mg/kg i.p., baseline 165±13, n=10 per group) | Plasma CA-IX reduction from baseline ([2]; 72 hours after dosing 150 mg/kg i.p., p<0.05) | circulating plasma CA-IX level change [2] | TGD500 (increased time for treated tumor to reach 500 mm^3 vs vehicle) [3] | TGI [3] | DNA damage (γH2AX immunostaining) (H460 xenograft tumors) | Proliferating cells (Ki67 immunostaining) (H460 xenograft tumors) | necrosis (hematoxylin and eosin staining) (H460 xenograft tumors) | [18F]-HX4 tumor to muscle ratio (T/M) ([4]; 72 hours after 150 mg/kg i.p., pre-treatment 3.3±0.3, p<0.005) | [18F]-HX4 uptake change (PET-CT) [4, 7] | hypoxic fraction (HF %) change, pimonidazole immunostaining ([5]; 72 hours after treatment) | hypoxic fraction (HF), PIMO immunostaining ([5]; tumors harvested 72 hours after 150 mg/kg i.p., vehicle 13±1.7%, n=6, p<0.05) | TGD500 (increased time for treated tumor to reach 500 mm^3 vs vehicle) [6] | TGI [6]
Cn1c(COP(=O)(NCCBr)NCCBr)cnc1[N+](=O)[O-] [TH-302, (2-bromoethyl)({[(2-bromoethyl)amino][(2-nitro-3-methylimidazol-4-yl)methoxy]phosphoryl})amine] | tumors with higher initial [18F]-HX4 uptake grew slower | did not change significantly | 10 days | 2% | 58% | 104 ± 9.3 pg/mL | 37% | significantly reduced | 10 days | 10% | significantly increased | decreased; also recorded: significantly reduced | significantly increased | 2.1±0.2 | significantly reduced | significantly reduced | 5.8±0.5% | 18 days | 89%
COc1cccc2c1C(=O)c1c(O)c3c(c(O)c1C2=O)C[C@@](O)(C(=O)CO)C[C@@H]3O[C@H]1C[C@H](N)[C@H](O)[C@H](C)O1 [doxorubicin, reference compound] |  |  |  |  |  |  |  | did not change circulating CA-IX levels significantly; also recorded: No change |  |  |  |  |  |  |  |  |  |  | 
